Series [1] deals with violacein production of C. violaceum CVO26. Nature of the series: Quorum sensing bioassay: violacein production. To be noted: Chromobacterium violaceum, 18 h, read-out: IC50 (Violacein inhibition). It is filed as cell-based, Chromobacterium violaceum. Here is the method:
The reporter strain C. violaceum CVO26 (CECT 5999) was used to screen the ability of the products to interfere with violacein production, a QS-regulated phenotype. C. violaceum CVO26 is a mini-Tn5 mutant that depends on an exogenous source of autoinducer (AI) (N-hexanoyl homoserine lactone, HHL) for violacein production. C. violaceum CVO26 was cultured in LB broth (Sigma-Aldrich) supplemented with 25 μg ml^-1 kanamycin. Inocula were prepared by dilution (1:100) of an overnight culture of the reporter strain [49]. One hundred microliters of inoculum with HHL (Sigma-Aldrich, 6 μM) or without the AI were added to 96-well plates containing 100 μl of the appropriate dilutions of the test products in LB. Thus, two sets of plates were prepared. One set of plates (without HHL) was used to evaluate the effect of the products on bacterial growth, whereas the other set of plates (with HHL) was used to evaluate their effect on violacein production. Both sets of plates were incubated at 30 °C with agitation (150 rpm) for 18 h.
Growth inhibition was quantified in the first batch of plates by re-suspending bacterial pellets and measuring the OD625. From the second batch of plates violacein was extracted and quantified. Briefly, the plates were dried overnight (60 °C) and violacein was re-solubilized by the addition of 200 μl of DMSO. The plates were shaken for 3 h and then the OD590 was determined.
To evaluate the effect of the alkyl triphenylphosphonium salts on QS-regulated phenotypes, an initial screening at the cut-off concentration of 100 μM was conducted with C. violaceum CVO26. The QS model of C. violaceum is relatively simple and consists of an acyl-homoserine lactone synthase (CviI) that produces the AI molecule N-hexanoyl homoserine lactone (HHL, strain ATCC 31532), or N-3-hydroxydecanoyl homoserine lactone (strain ATCC 12472) which is recognized by the cytoplasmic receptor CviR (Fig 4). The reporter strain CVO26 is a CviI::mini-Tn5 mutant of strain ATCC 31532 and thus recognizes HHL. CviR is a DNA-binding transcription factor that activates the expression of the genes encoding the production of violacein, the characteristic purple alkaloid that gives name to the species.
Indeed, the inhibitions observed in violacein production for long alkyl chains (10–18, 20) were clearly correlated to the biocidal effect exerted by these compounds, with ‘therapeutic ratios’ (IC50 for growth inhibition/IC50 for violacein inhibition) around 1, in general (Table 2). Note that, as the length of the hydrocarbon chain becomes shorter, this ratio increased (8–9). […] To evaluate these compounds in further detail, […] stock solutions were prepared […] to avoid the use of high concentrations of DMSO in the bioassays. […] Serial two-fold dilutions (500–3.9 μM) were assayed. Consequently, the highest amount of DMSO used in the assay was 0.25% (v/v). […] Growth inhibitory effects are only observed at 500 μM, particularly for compound 7 (Fig 6D).

Series [2] has as its system Artemia salina nauplii. Put plainly: in vivo. To be noted: instar I nauplii, 24 h, 28 °C. Here is the method: (§1) All the biological assays were run by triplicate. […] For the active products, serial dilutions were performed to calculate the half-maximal inhibitory concentrations (IC50) or the minimal inhibitory concentrations (MIC). Unless otherwise stated, the test concentrations were 100, 50, 25, 10, 5, 2.5, 1, 0.5 and 0.1 μM. Dose-response curves were adjusted with GraphPad Prism 5 software using a four-parameter non-linear regression model.
Artemia salina cysts (INVE Aquaculture, Ghent, Belgium) were hatched in brackish water (30 ‰ salinity) at 28 °C with aeration and under constant light. Newly hatched instar I nauplii were harvested for bioassays. Tests were conducted in 96-well plates (15±5 nauplii per well, test volume = 200 μl). The number of dead and alive individuals was recorded after 24 h of incubation at 28 °C and 24-hour photoperiod.

Series [3] has as its system Fusarium sp. Nature of the series: Marine-derived fungi growth inhibition (OD405). It is filed as cell-based. To be noted: Fusarium, 120 h, 5 days, 26 °C. Here is the method:
All the biological assays were run by triplicate.
Three strains of marine-derived fungi were kindly provided by Dr. Á. Trigos (University of Veracruz, Mexico). The strains were isolated from reef organisms collected from the Veracruz Reef System and identified as Aspergillus sp., Fusarium sp. and Alternaria sp..
Fungal strains were cultured in Potato-Dextrose Agar (PDA) supplemented with filtered seawater (FSW) (50% v/v) at 26 °C for 5 days prior to experiments. […] Briefly, fungal inocula were prepared by addition of 5 ml of sterile saline solution to the cultures. Gently swabbing released conidia. […] The plates were incubated for 5 days at 26 °C. The calculation of the half-maximal inhibitory concentrations (IC50) was performed using OD405 as endpoint.

Series [4] concerns Pseudoalteromonas atlantica CECT 579. Put plainly: Marine bacteria growth inhibition (broth microdilution, OD625). The format is cell-based. To be noted: Pseudoalteromonas atlantica, read-out: IC50 P. atlantica. How it is done:
as §1
(§2) Growth inhibition was assessed in Marine Broth (Conda) according to CLSI guidelines for broth microdilution susceptibility testing. The incubation time was 24 h and the incubation temperature was 30 °C.
(Broth dilution looks for growth in wells or tubes with falling amounts of substance.)

In series [5] the test system is Vibrio anguillarum CECT 4347. The description is as above. To be noted: Vibrio anguillarum, read-out: IC50 V. anguillarum. It is filed as cell-based. Here is the method: as §1, §2
Series [6] concerns Vibrio alginolyticus CECT 521. The description is as above. It is filed as cell-based. To be noted: Vibrio alginolyticus, read-out: IC50 V. alginolyticus. How it is done:
as §1, §2

The subject of series [7] is Shewanella algae CECT 5021. The series is described as above. The settings on record: Shewanella algae, read-out: IC50 S. algae. The format is cell-based. How it is done: as §1, §2
In series [8] the test system is Cobetia marina CECT 4278. The description is as above. The format is cell-based. The settings on record: Cobetia marina, read-out: IC50 C. marina. Here is the method:
as §1, §2

For series [9], the system named is Cellulophaga lytica CECT 5014. Described as above. It is filed as cell-based. To be noted: Cellulophaga lytica, read-out: IC50 C. lytica. Here is the method:
as §1, §2

Where [10] appears, read: CECT579, growth inhibition, 24 h, 30 °C, three replicates.
Setting [11] is: CECT4347, growth inhibition, 24 h, 30 °C, three replicates.
The mark [12] stands for this setting: CECT521, growth inhibition, 24 h, 30 °C, three replicates.
The mark [13] stands for this setting: CECT5021, growth inhibition, 24 h, 30 °C, three replicates.
[14] abbreviates: CECT4278, growth inhibition, 24 h, 30 °C, three replicates.
Where [15] appears, read: CECT5014, growth inhibition, 24 h, 30 °C, three replicates.

Broadly, the IC50 is the concentration needed to halve the response being measured.

Structures are written as SMILES. Where two headings read alike, the source gives them in different places.

With `CCCCCCCCC[P+](c1ccccc1)(c1ccccc1)c1ccccc1` [Compound 9], the IC50 in [1] is 7.6 µM; in [3], 31.4 µM; in series [4] (setting [10]), 6.6 µM; in series [5] (setting [11]), 87 µM; in series [6] (setting [12]), 69.7 µM; in [7] (setting [13]), 8.6 µM. Further, the half-inhibitory concentration (IC50) in [8] (setting [14]) came out at 21 µM; in [9] (setting [15]), 2.6 µM. Besides, the “IC50 A. salina (LC50)” value in [2] was 2.0 µM.

For `CCCCCCCCCC[P+](c1ccccc1)(c1ccccc1)c1ccccc1` [Compound 10], the IC50 in [1] is 7.7 µM; in [3], 21 µM; in [4] (setting [10]) it was 5.2 µM; in [5] (setting [11]), 18.3 µM; in [6] (setting [12]), 35.5 µM; in series [7] (setting [13]), 10.4 µM. The results for the IC50 in [8] (setting [14]) and in series [9] (setting [15]) were 8 µM and 2.6 µM, respectively. Moreover, in series [2], the “IC50 A. salina (LC50)” value was 1.4 µM.

For `CCCCCCCCCCC[P+](c1ccccc1)(c1ccccc1)c1ccccc1` [Compound 11], the IC50 in series [1] turned out to be 3.5 µM; in series [3] it was 5.3 µM; in series [4] (setting [10]), 3 µM; in [5] (setting [11]), 17 µM; in [6] (setting [12]), 32.9 µM; in [7] (setting [13]), 5.4 µM. Moreover, the IC50 in series [8] (setting [14]) came out at 6.1 µM; in [9] (setting [15]), 1.1 µM. In addition, the “IC50 A. salina (LC50)” value in series [2] was 1.8 µM.

For `CCCCCCCCCCCC[P+](c1ccccc1)(c1ccccc1)c1ccccc1` [Compound 12], the IC50 in [1] was 6.6 µM; in [3], 6.6 µM; in [4] (CECT579, 24 h), 1.1 µM; in [5] (CECT4347, 24 h), 27.5 µM; in [6] (CECT521, 24 h), 26.3 µM; in series [7] (CECT5021, 24 h), 3 µM. Also, the IC50 in [8] (CECT4278, 24 h) is 5.1 µM; in [9] (CECT5014, 24 h) it was 1.7 µM. In addition, the “IC50 A. salina (LC50)” value in [2] came out at 2.4 µM.

Turning to `CCCCCCCCCCCCC[P+](c1ccccc1)(c1ccccc1)c1ccccc1` [Compound 13], the IC50 turned out to be 3.9 µM in series [1]; 6.5 µM in [3]; 1.2 µM in series [4] (setting [10]); 5.7 µM in series [5] (setting [11]); 11.3 µM in [6] (setting [12]); 3.6 µM in [7] (setting [13]). The IC50 in [8] (setting [14]) turned out to be 5 µM; in [9] (setting [15]), 1.7 µM. Further, the “IC50 A. salina (LC50)” value in series [2] amounted to 0.9 µM.

As for `CCCCCCCCCCCCCC[P+](c1ccccc1)(c1ccccc1)c1ccccc1` [Compound 14], the IC50 in series [1] came out at 4.6 µM; in series [3], 5.1 µM; in series [4] (setting [10]), 2.3 µM; in series [5] (setting [11]) it was 1.6 µM; in series [6] (setting [12]), 12.7 µM; in [7] (setting [13]), 1.2 µM. The values for the IC50 in series [8] (setting [14]) and in [9] (setting [15]) were 5.3 µM and 2 µM, respectively. The “IC50 A. salina (LC50)” value in [2] came to 1.8 µM.

Take `CCCCCCCCCCCCCCC[P+](c1ccccc1)(c1ccccc1)c1ccccc1` [Compound 15]: the IC50 in series [1] was 1.2 µM; in [3], 4.2 µM; in [4] (setting [10]), 2.9 µM; in series [5] (setting [11]) it was 2.7 µM; in series [6] (setting [12]), 5.6 µM; in [7] (setting [13]) it was 3.8 µM. For the same compound, the results for the IC50 in series [8] (setting [14]) and in [9] (setting [15]) were 5.5 µM and 1.9 µM, respectively. Further, the “IC50 A. salina (LC50)” value in series [2] came out at 2.8 µM.

As to `CCCCCCCCCCCCCCCC[P+](c1ccccc1)(c1ccccc1)c1ccccc1` [Compound 16], the IC50 was found to be 4.2 µM in series [1]; 9.3 µM in series [3]; 6.8 µM in [4] (setting [10]); 5.3 µM in [5] (setting [11]); 16.9 µM in [6] (setting [12]); 5.4 µM in [7] (setting [13]). Further, the IC50 in series [8] (setting [14]) was determined as 9.9 µM; in [9] (setting [15]) it was 1.5 µM. The “IC50 A. salina (LC50)” value in [2] was found to be 1.8 µM.

On to `CCCCCCCCCCCCCCCCCC[P+](c1ccccc1)(c1ccccc1)c1ccccc1` [Compound 17], for which the IC50 in [1] is 7 µM; in [3], 8.8 µM; in series [4] (setting [10]) it was 46.1 µM; in series [5] (setting [11]) it was 31.8 µM; in [6] (setting [12]) it was over 100 µM; in [7] (setting [13]), 72.5 µM. The IC50 was over 100 µM in series [8] (setting [14]) and 11.3 µM in [9] (setting [15]). In addition, the “IC50 A. salina (LC50)” value in [2] was under 0.5 µM.

For `CCCCCCCCCCCCCCCCCCC[P+](c1ccccc1)(c1ccccc1)c1ccccc1` [Compound 18], the IC50 was 35.2 µM in [1]; 7.3 µM in series [3]; over 100 µM in [4] (setting [10]); over 100 µM in series [5] (setting [11]); over 100 µM in [6] (setting [12]); over 100 µM in series [7] (setting [13]). Moreover, the IC50 in [8] (setting [14]) was over 100 µM; in series [9] (setting [15]), 5.3 µM. In addition, in [2], the “IC50 A. salina (LC50)” value is under 0.5 µM.

Consider `c1ccc([P+](CCCCCCCCCCCC[P+](c2ccccc2)(c2ccccc2)c2ccccc2)(c2ccccc2)c2ccccc2)cc1` [Compound 20], for which the IC50 in [1] is 16.7 µM; in series [3] it was 5.6 µM; in series [4] (setting [10]) it was 0.8 µM; in series [5] (setting [11]) it was 8 µM; in series [6] (setting [12]), 93.5 µM; in [7] (setting [13]), 2.2 µM. Also, the IC50 in series [8] (setting [14]) was 7.3 µM; in [9] (setting [15]), 1.1 µM. Besides, the “IC50 A. salina (LC50)” value in series [2] was found to be 3.0 µM.

The values are drawn from article PMC4405350, “From Broad-Spectrum Biocides to Quorum Sensing Disruptors and Mussel Repellents: Antifouling Profile of Alkyl Triphenylphosphonium Salts” (PLoS ONE, 2015).
